According to patent US11191835B2, “Chlorin-vitamin conjugates” (priority 2018, dated 2021):
Where two headings read alike, the source gives them in different places.

Experiments:
[1] = test system: triple-negative breast cancer cell BT549; format: cell-based; set-up: % Cell Survival: concentration or dose not given beside the values; details: for % Cell Survival: BT549, 24 h compound treatment followed by 2 min light irradiation (1.92 J cm^−2); for dark toxicity / dark toxicity ranking: absence of light
Procedure: (§1) Human mammary epithelial carcinoma cell lines purchased from the American Type Culture Collection ZR-75-1 (ATCC CRL-1500) and BT-549 (ATCC HTB-122) were cultured according to ATCC protocol. Briefly, ZR-75-1 cells were grown in RPMI 1640 medium (ATCC), while BT-549 were grown in RPMI 1640 containing 0.023 IU/mL insulin. Both were supplemented with 10% fetal bovine serum (FBS). Cells were grown to 80-90% confluence in 75-cm^2 culture flasks (Corning) for 4-5 days in a humidified incubator (Fisher Scientific Isotemp) with 5% CO2 at 37° C. During the incubation period, growth media was changed once with fresh pre-warmed media (pH 7.2). To harvest the cells, old growth media was aspirated out and 3 mL 0.25% trypsin solution (Thermo Sci Hyclone) were added. The cells were incubated for 5 min and the cell pellet after centrifugation was resuspended in 3 mL media, broken up gently, then 1 ml of suspended cells was transferred into a new T75 cell culture flask containing pre-warmed media (20 mL) for further culturing.
(§2) Cells were grown to confluence in a 96-well plate (5×10^4 cells/well) and treated for 24 h with compounds or photosensitizers of varying concentrations ranging from 5 nM to 50 μM) in growth media from a stock solution of 10 mM in DMSO (dimethyl sulfoxide, Fisher). After 24 h treatment, old growth media containing the PS or compounds were aspirated out and replaced with fresh media. Plates were then positioned below a non-coherent LumaCare LC-122 650 nm light source for 1, 2, and 5 min at an energy fluence rate of 16 mW/cm^2 (measured using a Newport optical power meter Model 840). Unirradiated cells served as control samples. The following day, cells were washed with pre-warmed PBS, and MTT (3-[4,5-dimethyl-thiazol-2-yl]-2.5-diphenyltetrazolium bromide, Sigma, 0.3 mg/mL) in PBS was added to each well. Samples were allowed to incubate for additional 2 h, after which dark blue crystals formed. DMSO was added to each well and plates were shaken at room temperature for 1 h to dissolve the purplish-blue formazan crystals. Absorbance values at 490 nm were measured on a microplate reader (BioRad 550). Cell survival was calculated based on the absorbance of the untreated cells alone (as control) and were directly proportional to the number of viable cells in culture. Results were reported as average of triplicate measurements.

[2] = test system: triple-positive breast cancer cell ZR-75-1; format: cell-based; set-up: % Cell Survival: concentration or dose not given beside the values; details: for % Cell Survival: ZR-75-1, 24 h compound treatment followed by 2 min light irradiation (1.92 J cm^−2); for dark toxicity / dark toxicity ranking: unirradiated TPBC cells
Procedure: as §1, §2

[3] = test system: triple-positive breast cancer cell ZR-75-1; test: Fluorescence microscopy (Hoechst 33258), ZR-75-1 cells; format: cell-based, Human; details: 24 h compound treatment followed by 2 min light irradiation (1.92 J cm^−2)
Procedure: Fluorescence microscopy was used to visualize and examine the cell morphological features before and after photosensitization. Specific cellular characteristics can identify the mechanism of cell death which can be exploited to understand therapeutic outcome. […] After aspirating the old growth media, 1 mL of the compound or photosensitizer (with varying concentrations) in fresh pre-warmed media at 37° C. was added to each well. […] Images were recorded using fluorescence microscopy (DAPI for Hoechst 350-390 nm excitation and 460-490 nm emission filters) using an upright fluorescence microscope with Retiga imaging 2000R (Nikon Optiphot-2, 20× and 40×) and an image processing Nikon NIS-Elements V4.0 Qimaging software.

[4] = test system: Mouse colon carcinoma cell line CT26.WT; test: Cell survival (MTT) assay, CT26 colon carcinoma cells; format: cell-based
Procedure: Mouse colon carcinoma cell line CT26. WT was purchased from the American Type Culture Collection (ATCC CRL-2638). […] During the incubation period, growth media was changed once with fresh pre-warmed medium (pH 7.2). To harvest the cells, old growth media was aspirated and 5 mL 0.25% trypsin solution (Thermo Sci Hyclone, Waltham, Mass., USA) were added. The cells were incubated for 10 min and gently scraped to detach cells from the flask walls. Clumped cells were broken up gently and 1 mL of the trypsinized cell homogenate suspension was transferred into a new T75 cell culture flask containing pre-warmed media (20 mL) for further culturing. […] After 24 h treatment, old growth media containing the PS or compounds were aspirated out and replaced with fresh media. Plates were then positioned below a non-coherent LumaCare LC-122 650 nm light source for 1, 2, and 5 min at an energy fluence rate of 16 mW/cm^2 (measured using a Newport optical power meter Model 840). Unirradiated cells served as control samples. […] Samples were allowed to incubate for additional 2 h, after which dark blue crystals formed. DMSO was added to each well and plates were shaken at room temperature for 1 h to dissolve the purplish-blue formazan crystals. Absorbance values at 490 nm were measured on a microplate reader (BioRad 550). Cell survival was calculated based on the absorbance of the untreated cells alone (as control) and were directly proportional to the number of viable cells in culture. Results were reported as average of triplicate measurements.

“Zn(II)-13^1-Hexamethylenediaminyl-Biotinylchlorin e6 dimethyl ester [Example 3]” was tested, and the “% Cell Survival” value [1] was 16%, the dark toxicity ([1]; TNBC cells, 24-hr treatment) was “exhibited dark toxicity” and the dark toxicity ranking ([1]; TNBC cells) was “Example 3 (most phototoxic in the dark)>Example 1>Example 6>Example 5”. The “% Cell Survival” value [2] was 15.4%, the dark toxicity [2] was “most phototoxic in the dark” and the dark toxicity ranking [2] was “Example 3>Example 5>MePheo>Example 6”.
With “13^1-Hexamethylenediaminyl-bexarotenylchlorin e6 dimethyl ester indium (III) chloride [Example 6]” the “% Cell Survival” value [1] was 33%, the dark toxicity ([1]; TNBC cells, 24-hr treatment) was “exhibited dark toxicity” and the dark toxicity ranking ([1]; TNBC cells) was “Example 3 (most phototoxic in the dark)>Example 1>Example 6>Example 5”. The “% Cell Survival” value [2] was 80%, the dark toxicity ranking [2] was “Example 3>Example 5>MePheo>Example 6” and the “Morphological Features” value [3] was “Clustered cells, intact nuclei”.
“13^1-Hexamethylenediaminyl-Biotinylchlorin e6 dimethyl ester indium (III) chloride [Example 5]” was tested, and the “decrease in cell proliferation of colon cancer cells” value ([4]; irradiation for 2 min, compared to MePheo, Example 1 or Example 3) was 30%, the “% Cell Survival” value [1] was 56% and the dark toxicity ([1]; TNBC cells, 24-hr treatment) was “exhibited dark toxicity”. For the same molecule, the dark toxicity ranking ([1]; TNBC cells) was “Example 3 (most phototoxic in the dark)>Example 1>Example 6>Example 5”, the “% Cell Survival” value [2] was 12.9% and the dark toxicity ranking [2] was “Example 3>Example 5>MePheo>Example 6”. The “Morphological Features” value [3] was “Cell debris apparent”.
`C=C(c1ccc(C(=O)O)cc1)c1cc2c(cc1C)C(C)(C)CCC2(C)C` [Bexarotene, reference compound] was tested, and the “% Cell Survival” value [1] was 111% and the “% Cell Survival” value [2] was 110%.
With “13^1-Hexamethylenediaminyl-bexarotenylchlorin e6 dimethyl ester [Example 2]” the “% Cell Survival” value [1] was 7.7% and the “% Cell Survival” value [2] was 4.6%.
With `O=C(O)CCCC[C@@H]1SC[C@@H]2NC(=O)N[C@@H]21` [Biotine, biotin, reference compound] the “toxicity to colon cancer cells (cell viability assay)” value ([4]; in the dark and in the presence of light, concentration up to 50 μM) was “not toxic”, the “% Cell Survival” value [1] was 116% and the “% Cell Survival” value [2] was 99%.
`C=Cc1c(C)c2cc3nc(c4c5[nH]c(cc6nc(cc1[nH]2)C(C)=C6CC)c(C)c5C(=O)[C@@H]4C(=O)OC)[C@@H](CCC(=O)OC)[C@@H]3C` [Methyl pheophorbide a, reference compound] was tested, and the “% Cell Survival” value [1] was 21%, the dark toxicity ([1]; TNBC cells, 24-hr treatment) was “no significant dark response” and the “% Cell Survival” value [2] was 3.4%. For the same molecule, the dark toxicity ranking [2] was “Example 3>Example 5>MePheo>Example 6”.
With “Zn(II)-13^1-Hexamethylenediaminyl-bexarotenylchlorin e6 dimethyl ester [Example 4]” the “% Cell Survival” value [1] was 108%, the dark toxicity ([1]; TNBC cells, 24-hr treatment) was “no significant dark response” and the “% Cell Survival” value [2] was 105%. For the same molecule, the dark toxicity [2] was “no toxicity” and the “Morphological Features” value [3] was “Clustered cells, intact nuclei”.
With `C=Cc1c(C)c2cc3nc(c(CC(=O)OC)c4[nH]c(cc5nc(cc1[nH]2)C(C)=C5CC)c(C)c4C(=O)NCCCCCCNC(=O)CCCC[C@@H]1SC[C@@H]2NC(=O)N[C@@H]21)[C@@H](CCC(=O)OC)[C@@H]3C` [Example 1, 13^1-Hexamethylenediaminyl-biotinylchlorin e6 dimethyl ester] the “increase of cell inhibition upon irradiation compared to methyl pheophorbide (MePheo)” value ([4]; colon cancer cells, upon irradiation) was “approximately 19%”, the “% Cell Survival” value [1] was 8.1% and the “phototoxicity at nanomolar concentrations” value ([1]; TNBC cells, 100 nM to 200 nM, light activation) was “showed a light-activation dose response”. The cell inhibition ([1]; TNBC cells, 100 nM, 5 min light dose (4.8 J cm^−2)) was 60%, the “reduction in cell proliferation” value ([1]; TNBC cells, 200 nM, lowest light dose used) was ~50% and the “cell survival in the absence of light” value ([1]; TNBC cells, 5 μM, 24-hr treatment, no light) was 86%. The dark toxicity ([1]; TNBC cells, 24-hr treatment) was “exhibited in vitro dark cytotoxicity at 5 μM concentration”, the dark toxicity ranking ([1]; TNBC cells) was “Example 3 (most phototoxic in the dark)>Example 1>Example 6>Example 5” and the “% Cell Survival” value [2] was 4.2%. For the same molecule, the dark toxicity [2] was “no toxicity” and the dark toxicity ([2]; listed as Example l) was “no dark toxicity”.
